Counter-ions that a name gives are not always drawn.
experiment: in vitro; details: human, hek293t cells

Row | SMILES | viability at 48 h, 25 µM [%]
1 | N#CC(=Cc1ccc(N2CCCCCC2)cc1)C(=O)NCC1CCCO1 (centres unmarked) [9-H15, 3-[4-(azepan-1-yl)phenyl]-2-cyano-N-[(oxolan-2-yl)methyl]prop-2-enamide] | 71.9
2 | N#CC(=Cc1c2ccccc2c(Cl)c2ccccc12)C(N)=O [8-N12, 3-(10-chloroanthracen-9-yl)-2-cyanoprop-2-enamide] | 69.3
3 | Cc1n[nH]c(C)c1C=C(C#N)C(=O)Nc1ccc(SC(F)F)cc1 [8-E08, 2-cyano-N-{4-[(difluoromethyl)sulfanyl]phenyl}-3-(3,5-dimethyl-1H-pyrazol-4-yl)prop-2-enamide] | 78.2
4 | C=CC(=O)NCc1ccc(C(C)(C)C)[nH]c1=O [3-P08, N-[(6-tert-butyl-2-oxo-1,2-dihydropyridin-3-yl)methyl]prop-2-enamide] | 76.4
5 | Cc1ccc(-c2cc(NC(=O)CCl)n(-c3ccccc3)n2)cc1 [4-C06, 2-chloro-N-[3-(4-methylphenyl)-1-phenyl-1H-pyrazol-5-yl]acetamide] | -0.283
6 | N#CC(=Cc1ccco1)C(=O)NS(=O)(=O)c1cccc2cnccc12 [9-H20, 2-cyano-3-(furan-2-yl)-N-(isoquinoline-5-sulfonyl)prop-2-enamide] | 105
7 | O=C1C=CC(=O)N1c1cccc([N+](=O)[O-])c1 [10-P15, 1-(3-nitrophenyl)-2,5-dihydro-1H-pyrrole-2,5-dione] | 92.8
8 | C=CC(=O)NCCN1CCn2nccc2C1 [3-F21, N-(2-{4H,5H,6H,7H-pyrazolo[1,5-a]pyrazin-5-yl}ethyl)prop-2-enamide] | 72.8
9 | COc1ccccc1CNC(=O)C(C)Cl (centres unmarked) [5-M21, 2-chloro-N-[(2-methoxyphenyl)methyl]propanamide] | 68.7
10 | COc1cc([N+](=O)[O-])ccc1NC(=O)CCl [4-O07, 2-chloro-N-(2-methoxy-4-nitrophenyl)acetamide] | 1.19
11 | CCOC(=O)c1c(C)[nH]c(C)c1C(=O)CCl [10-C10, ethyl 4-(2-chloroacetyl)-2,5-dimethyl-1H-pyrrole-3-carboxylate] | 101
12 | CC(Cl)C(=O)N1CC(Cc2cccs2)C1 (centres unmarked) [7-I04, 2-chloro-1-{3-[(thiophen-2-yl)methyl]azetidin-1-yl}propan-1-one] | 88.8
13 | CC(=Cc1ccccc1)C=C(C#N)C(=O)NC1CC1 [9-F12, 2-cyano-N-cyclopropyl-4-methyl-5-phenylpenta-2,4-dienamide] | 92.3
14 | Cc1ccc(C(=O)c2ccccc2NC(=O)CCl)cc1 [4-N17, 2-chloro-N-[2-(4-methylbenzoyl)phenyl]acetamide] | 2.4
15 | C=CC(=O)NCc1nnc(C2CCOCC2)[nH]1 [2-M22, N-{[5-(oxan-4-yl)-4H-1,2,4-triazol-3-yl]methyl}prop-2-enamide] | 93.3
16 | N#CC(C(=O)CCl)c1nncn1-c1ccccc1 (centres unmarked) [10-L14, 4-chloro-3-oxo-2-(4-phenyl-4H-1,2,4-triazol-3-yl)butanenitrile] | 83.7
17 | O=C(CCl)NCCSc1ccccc1 [4-G21, 2-chloro-N-[2-(phenylsulfanyl)ethyl]acetamide] | 1.68
18 | C=CC(=O)NCC(C)Cn1ccc(C)n1 (centres unmarked) [2-D03, N-[2-methyl-3-(3-methyl-1H-pyrazol-1-yl)propyl]prop-2-enamide] | 99.9
19 | C=CC(=O)NCc1cccc2c1OCO2 [1-E07, N-[(1,3-dioxaindan-4-yl)methyl]prop-2-enamide] | 69.1
20 | CCc1cnc(N2CCN(C(=O)C(C)Cl)CC2)s1 (centres unmarked) [7-C20, 2-chloro-1-[4-(5-ethyl-1,3-thiazol-2-yl)piperazin-1-yl]propan-1-one] | 79.5
21 | CC(Cl)C(=O)N1CCCC1c1nc(-c2ccccc2)c(C(C)C)o1 (centres unmarked) [7-H11, 2-chloro-1-{2-[4-phenyl-5-(propan-2-yl)-1,3-oxazol-2-yl]pyrrolidin-1-yl}propan-1-one] | 79.2
22 | N#CC(=Cc1ccsc1)C(=O)Nc1nccs1 [9-C17, 2-cyano-N-(1,3-thiazol-2-yl)-3-(thiophen-3-yl)prop-2-enamide] | 121
23 | C=CC(=O)NCc1nc(-c2ccc(F)cc2)n[nH]1 [3-D04, N-{[3-(4-fluorophenyl)-1H-1,2,4-triazol-5-yl]methyl}prop-2-enamide] | 95.1
24 | CC(Cl)C(=O)NCCNC(=O)c1ccoc1 (centres unmarked) [7-E21, 2-chloro-N-{2-[(furan-3-yl)formamido]ethyl}propanamide] | 90.5
25 | COc1ccccc1C1CSCCCN1C(=O)CCl (centres unmarked) [5-O16, 2-chloro-1-[3-(2-methoxyphenyl)-1,4-thiazepan-4-yl]ethan-1-one] | 78.1
26 | O=C(CCl)N1CCN(CCOc2ccccc2)CC1 [4-H14, 2-chloro-1-[4-(2-phenoxyethyl)piperazin-1-yl]ethan-1-one hydrochloride] | 1.67
27 | O=C(CCl)Nc1ccccc1C(=O)NCc1ccccc1 [4-C03, N-benzyl-2-(2-chloroacetamido)benzamide] | 0.33

Row | SMILES | viability at 48 h, 25 µM [%]
28 | Cc1cc(C(=O)CCl)c(C)n1Cc1ccc(F)cc1 [10-N17, 2-chloro-1-{1-[(4-fluorophenyl)methyl]-2,5-dimethyl-1H-pyrrol-3-yl}ethan-1-one] | 6.45
29 | CCc1ccc(NC(=O)C(C#N)=Cc2cccnc2)cc1 [8-G04, 2-cyano-N-(4-ethylphenyl)-3-(pyridin-3-yl)prop-2-enamide] | 86.1
30 | CC(Cl)C(=O)NCC1CC(=O)N(c2ccccc2)C1 (centres unmarked) [7-O20, 2-chloro-N-[(5-oxo-1-phenylpyrrolidin-3-yl)methyl]propanamide] | 85.1
31 | CN(C)c1ccc(C=C(C#N)C(=O)Nc2nccs2)cc1 [8-E06, 2-cyano-3-[4-(dimethylamino)phenyl]-N-(1,3-thiazol-2-yl)prop-2-enamide] | 75.1
32 | CC(C)NC(=O)C(C#N)=Cc1ccccc1 [8-L05, 2-cyano-3-phenyl-N-(propan-2-yl)prop-2-enamide] | 104
33 | C=CC(=O)Nc1ccc2c(c1)CCO2 [1-O11, N-(2,3-dihydro-1-benzofuran-5-yl)prop-2-enamide] | 87.8
34 | Cn1cc(C=C(C#N)C(=O)NCc2ccco2)cn1 [8-L06, 2-cyano-N-[(furan-2-yl)methyl]-3-(1-methyl-1H-pyrazol-4-yl)prop-2-enamide] | 89.4
35 | N#CC(=Cc1cnn(-c2ccc(Cl)cc2)c1)C(=O)NC1CCCC1 [8-M10, 3-[1-(4-chlorophenyl)-1H-pyrazol-4-yl]-2-cyano-N-cyclopentylprop-2-enamide] | 83.3
36 | Cc1ccc(NC(=O)C(C#N)=Cc2ccccc2OC(F)F)c(C)c1 [9-K17, 2-cyano-3-[2-(difluoromethoxy)phenyl]-N-(2,4-dimethylphenyl)prop-2-enamide] | 94.9
37 | Cc1cc(C=C(C#N)C(N)=O)c(C)n1-c1cccc2ccccc12 [9-I12, 2-cyano-3-[2,5-dimethyl-1-(naphthalen-1-yl)-1H-pyrrol-3-yl]prop-2-enamide] | 86.9
38 | C=CC(=O)N1CCC(C(=O)NCC(O)c2c(F)cccc2F)CC1 (centres unmarked) [2-P14, N-[2-(2,6-difluorophenyl)-2-hydroxyethyl]-1-(prop-2-enoyl)piperidine-4-carboxamide] | 102
39 | C=CC(=O)NC1CCOC(c2cnn(C)c2)C1 (centres unmarked) [2-F07, N-[2-(1-methyl-1H-pyrazol-4-yl)oxan-4-yl]prop-2-enamide] | 73
40 | C=CC(=O)NCc1ncoc1C(F)(F)F [3-E18, N-{[5-(trifluoromethyl)-1,3-oxazol-4-yl]methyl}prop-2-enamide] | 93.1
41 | Cc1ccsc1C=C(C#N)C(=O)NC1CCCCC1C (centres unmarked) [8-G07, 2-cyano-N-(2-methylcyclohexyl)-3-(3-methylthiophen-2-yl)prop-2-enamide] | 61.1
42 | C=CC(=O)Nc1ccc(S(=O)(=O)N(C)C)c(C)c1 [2-E06, N-[4-(dimethylsulfamoyl)-3-methylphenyl]prop-2-enamide] | 78.7
43 | O=C(CCl)c1cc2c3c(c1)CC(=O)N3CCC2 [10-G16, 6-(2-chloroacetyl)-1-azatricyclo[6.3.1.0,4,12]dodeca-4(12),5,7-trien-2-one] | 1.58
44 | N#CC(=Cc1cccs1)C(=O)Nc1ccc(F)cc1 [8-F10, 2-cyano-N-(4-fluorophenyl)-3-(thiophen-2-yl)prop-2-enamide] | 102
45 | O=C(CCl)NCc1ccccc1CN1CCCC1=O [6-K14, 2-chloro-N-({2-[(2-oxopyrrolidin-1-yl)methyl]phenyl}methyl)acetamide] | 2.03
46 | N#CC(=Cc1cccc(Cl)c1Cl)C(=O)NCc1ccco1 [8-P04, 2-cyano-3-(2,3-dichlorophenyl)-N-[(furan-2-yl)methyl]prop-2-enamide] | 52.4
47 | C=CC(=O)N(Cc1noc2c1CCCC2)CC1CCCC1 [1-H13, N-(cyclopentylmethyl)-N-[(4,5,6,7-tetrahydro-1,2-benzoxazol-3-yl)methyl]prop-2-enamide] | 113
48 | CC(Cl)C(=O)NCc1csc2ccccc12 (centres unmarked) [7-C11, N-[(1-benzothiophen-3-yl)methyl]-2-chloropropanamide] | 81.9
49 | COc1cc(Cl)c(C)cc1NC(=O)C(C)Cl (centres unmarked) [6-C15, 2-chloro-N-(4-chloro-2-methoxy-5-methylphenyl)propanamide] | 102
50 | CC(=O)Nc1ccsc1C=C(C#N)C(=O)Nc1ccc(F)cc1 [9-F14, 2-cyano-3-(3-acetamidothiophen-2-yl)-N-(4-fluorophenyl)prop-2-enamide] | 98.4
51 | Cc1ccc(NC(=O)C(C#N)=Cc2ccsc2)c(C)c1 [9-M19, 2-cyano-N-(2,4-dimethylphenyl)-3-(thiophen-3-yl)prop-2-enamide] | 102
52 | COc1cc(CNC(=O)C(C#N)=Cc2ccco2)c2ccccc2n1 [9-I05, 2-cyano-3-(furan-2-yl)-N-[(2-methoxyquinolin-4-yl)methyl]prop-2-enamide] | 114
53 | N#CC(=Cc1ccsc1)C(=O)NCc1ccco1 [9-H22, 2-cyano-N-[(furan-2-yl)methyl]-3-(thiophen-3-yl)prop-2-enamide] | 123
